{
  "source": "patent US6469055B2",
  "about": "“Compositions and methods for treatment of neurological disorders and neurodegenerative diseases” (Massachusetts Institute of Technology, priority 1996, dated 2002)",
  "key": {"secreted APP (APPs)": {"test_system": "secreted APP (APPs)", "test": "APPs secretion into the media of cultured cortical astrocytes, Western blot", "type": "cell-based, rat", "details": "for secretion of soluble APPs: aspirin or resveratrol, nano- or micromolar range, cultured astrocytes or neurons", "protocol": "Astrocytes are isolated from cortices from postnatal rats. […] Media are changed twice weekly.\nTo detect secreted APP, culture media was collected after drug treatments and phenylmethylsulfonyl fluoride was added to a final concentration of 2 mM. The media samples were then applied to Sephadex PD-10 desalting columns (Pharmacia) and eluted with distilled water. Column eluates were frozen and dried by vacuum centrifugation. The lyophilized proteins were reconstituted in 25 μL water followed by 25 μL of 2X Laemmli gel loading buffer, and boiled for 5 min.\n(§1) Assays of PI hydrolysis are conducted as previously reported. Also, measurements of APPs are conducted as previously reported."}, "APP mRNA": {"test_system": "APP mRNA", "test": "APP mRNA, Northern blot, cultured cortical astrocytes", "experimental": "Pharmacological manipulations are performed in serum-free media on 7-14 DIV confluent astrocytes.\nTotal RNA from astrocytes grown on 100 mm dishes is extracted by the acid guanidium thiocyanate-phenol-chloroform method. […] In brief, the medium was aspirated and the cells were scraped in 1 mL of TRI Reagent. After incubation for 15 min at room temperature, 0.2 ml chloroform was added, mixed vigorously with TRI Reagent and the mixture was stored for another 15 min at room temperature. After centrifugation at 12,000 g for 15 min, 0.5 ml isopropanol was added to the aqueous phase of the mixture to precipitate RNA. The RNA pellet collected by centrifugation (12,000 g, 15 min at 4° C.) was washed with 70% ethanol. once and solubilized in an appropriate amount of Formazol (Molecular Research Center, Cincinnati, Ohio). […] RNA was blotted onto Hybond polyvinyl membranes by overnight capillary transfer and fixed onto the membranes by UV light illumination. […] Membranes were dried and exposed to Kodak X-ray film for 24-48 h with an Amersham enhancer sheet. The relative amounts of mRNA obtained by hybridization were estimated using densitometric analysis of autoradiographs. The levels of APP mRNA were normalized to the amounts of G3PDH mRNA and expressed as a ratio to the levels of untreated, control cells."}, "cellular cAMP levels": {"test_system": "cellular cAMP levels", "test": "cAMP assay in cultured astrocytes", "type": "cell-based, rat", "protocol": "In brief, after aspirating the medium and rinsing twice with 1 ml ice cold PBS, the cells were scraped in 0.8 ml ice cold ethanol and sonicated. […] After resuspension in 120 μl Tris/EDTA buffer, two duplicate samples of 50 μl each were mixed with the binding protein, [8-^3H] adenosine 3′, 5′-cyclic phosphate tracer and incubated at 2-4° C. for 2 h. A charcoal suspension (100 μl) was added to the samples before centrifugation and 200 μl of the supernatant were removed for. scintillation counting. The amount of cyclic AMP (pmol/mg protein) was estimated by comparing to known standards, and normalized to the amounts of whole cell protein as determined by the bicinchoninic acid assay (Sigma)."}, "astrocytes": {"test_system": "astrocytes", "test": "Process formation of cultured astrocytes", "type": "cell-based, rat"}, "APP holoprotein [1]": {"test_system": "APP holoprotein", "test": "Cell-associated APP (APP holoprotein), Western blot, cultured cortical astrocytes", "details": "for effect on cell-associated APP (APP holoprotein): PMA 5 μM or DNF 100 μM; for levels of cellular and amyloidogenic APP holoprotein: aspirin or resveratrol, 1 h, nano- or micromolar range, cultured astrocytes or neurons", "experimental": "Astrocytes are isolated from cortices from postnatal rats. […] In brief, dissected cortices were dissociated by trypsinization and trituration through a flame-polished Pasteur pipette. Cells were plated onto poly-L-lysine coated 35- or 100 mm culture dishes at densities of about 10-25 cells/mm^2. […] Media are changed twice weekly. […] Pharmacological manipulations are performed in serum-free media on 7-14 DIV confluent astrocytes.\nTo detect cell-associated protein (APP or GFAP), astrocytes from 35 mm dishes are scraped in lysis buffer (60 mM Tris/HCl, 4% SDS, 20% glycerol, 1 mM dithiothreitol), ultrasonicated and boiled for 5 min. The total amount of cell protein per dish, estimated using the bicinchoninic acid assay, is not altered by pharmacological treatments. Bromphenol blue (0.1%) is added to each sample and equal amounts of protein (˜75 mg/lane) are loaded on 10% SDS-polyacrylamide gels.\n(§2) The amount of media or cell protein loaded for sodium dodecyl sulfate-polyacrylamide gel electrophoresis (10-20% SDS PAGE; Bio-Rad) was normalized for the amount of protein per sample. […] After 2×10 min rinses in TBST, the membranes were incubated in TBST containing an appropriate antibody. Monoclonal antibodies 22C11 and GFAP (both from Boehringer-Mannheim) were used to detect the N-terminus of APP and glial fibrillary acidic protein respectively; antisera R37 and R98 (gifts of Dr. F. Kametani, Tokyo Institute of Psychiatry) were used to detected the C-terminus and KPI motifs of APP respectively; antiserum C8 (gift of Dr. D. Selkoe, Women's Hospital, Harvard Medical School, Cambridge, Mass.) was used to detect the C-terminus of APP.\nAfter an overnight incubation, membranes were rinsed in TBST before being treated for 1h with a peroxidase-linked secondary antibody. After several rinses in TBST, protein bands were visualized on Kodak X-AR films by an enhanced chemiluminescence method (Amersham). Optical densities of the protein bands were quantitated by laser scanning densitometry (LKB, Bromma, Sweden), and normalized to the densities of those bands generated under control conditions."}, "APP synthesis": {"test_system": "APP synthesis", "test": "APP synthesis (APP mRNA and holoprotein) in cultured cortical astrocytes", "type": "cell-based, rat"}, "[2]": {"test_system": "glial fibrillary acidic protein (GFAP)", "test": "GFAP protein in cultured astrocytes, Western blot", "type": "cell-based, rat", "details": "PG E2 treatment", "experimental": "To detect cell-associated protein (APP or GFAP), astrocytes from 35 mm dishes are scraped in lysis buffer (60 mM Tris/HCl, 4% SDS, 20% glycerol, 1 mM dithiothreitol), ultrasonicated and boiled for 5 min. […] Bromphenol blue (0.1%) is added to each sample and equal amounts of protein (˜75 mg/lane) are loaded on 10% SDS-polyacrylamide gels.\nas §2\nAfter an overnight incubation, membranes were rinsed in TBST before being treated for 1h with a peroxidase-linked secondary antibody. After several rinses in TBST, protein bands were visualized on Kodak X-AR films by an enhanced chemiluminescence method (Amersham). […]"}, "APP holoprotein [3]": {"test_system": "APP holoprotein", "test": "Brain APP holoprotein in rats injected with p-chloroamphetamine (PCA) with or without aspirin", "type": "in vivo, rat", "details": "for brain APP holoprotein relative to control levels: rats, injections of aspirin alone", "from_the_text": "Neuronal injury can stimulate prostaglandin production., and thereby stimulate APP overexpression. We injected rats with para-chloroamphetamine (PCA), a neurotoxin which causes a loss of serotoninergic terminals in the brain."}, "PI hydrolysis": {"test_system": "PI hydrolysis", "test": "PI hydrolysis in cultured astrocytes", "type": "cell-based, rat", "details": "propranolol 50 μM with NE 50 μM", "protocol": "as §1"}, "[4]": {"details": "propranolol 50 μM with NE 50 μM"}},
  "note": "“Also recorded” adds a separate entry of the source.",
  "data": [
    {"smiles": "CCCCC[C@H](O)/C=C/[C@H]1[C@H](O)CC(=O)[C@@H]1C/C=C\\CCCC(=O)O", "note": "[PG E2, prostaglandin E2]", "values": [
      {"measurement": "APP secreted in the media", "setting": "secreted APP (APPs); PG E2 1, 10 or 100 μM, 24 h, mAb 22C11, R37 or C8", "result": "increased"},
      {"measurement": "APP holoprotein (~130 kD) in the media", "setting": "secreted APP (APPs); PG E2, 24 h, antisera C8", "result": "increased amounts"},
      {"measurement": "effect on APP mRNA", "setting": "APP mRNA; PG E2 0.1 μM", "result": "did not significantly alter; also recorded: not 0.1 μM PG E2"},
      {"measurement": "astrocytic APP mRNA relative to untreated cells", "setting": "APP mRNA; PG E2 1, 10 or 100 μM, 24 h", "result": "significantly increased; also recorded: stimulated increases"},
      {"measurement": "cellular cAMP levels compared to untreated cells", "setting": "cellular cAMP levels; 1 μg PG E2 (so in the source)", "result": 27, "unit": "fold"},
      {"measurement": "cellular cAMP levels compared to untreated cells", "setting": "cellular cAMP levels; 10 μg PG E2 (so in the source)", "result": 106, "unit": "fold"},
      {"measurement": "cellular cAMP levels compared to untreated cells", "setting": "cellular cAMP levels; 100 μg PG E2 (so in the source)", "result": 227, "unit": "fold"},
      {"measurement": "cAMP production", "setting": "cellular cAMP levels; PG E2 0.1 μM", "result": "did not stimulate"},
      {"measurement": "cAMP versus PG E2 concentration", "setting": "cellular cAMP levels; PG E2 1, 10 or 100 μM", "result": "Concentration-dependent elevations"},
      {"measurement": "process formation in astrocytes", "setting": "astrocytes", "result": "induced"},
      {"measurement": "effect on APP holoprotein", "setting": "APP holoprotein [1]; PG E2 0.1 μM", "result": "did not significantly alter; also recorded: not 0.1 μM PG E2"},
      {"measurement": "cellular APP holoprotein, of untreated control cells", "setting": "APP holoprotein [1]; PG E2 1 μM, 24 h", "result": 1.4, "unit": "fold"},
      {"measurement": "cellular APP holoprotein, of untreated control cells", "setting": "APP holoprotein [1]; PG E2 10 μM, 24 h", "result": 1.9, "unit": "fold"},
      {"measurement": "cellular APP holoprotein, of untreated control cells", "setting": "APP holoprotein [1]; PG E2 100 μM, 24 h", "result": 2.3, "unit": "fold"},
      {"measurement": "effect on APP holoprotein", "setting": "APP holoprotein [1]; PG E2 1, 10 or 100 μM, 24 h", "result": "stimulated increases"},
      {"measurement": "KPI-containing APP isoforms", "setting": "APP holoprotein [1]; PG E2 treatment, antiserum R98", "result": "increases"},
      {"measurement": "effect on APP synthesis, shorter treatment", "setting": "APP synthesis; PG E2 10 μM, 6 or 12 h", "result": "did not reliably increase"},
      {"measurement": "levels of GFAP", "setting": "[2]", "result": "increased"}
    ]},
    {"smiles": "CCCCCCCCCCCCCC(=O)O[C@@H]1[C@@H](C)[C@@]2(O)[C@@H](C=C(CO)C[C@]3(O)C(=O)C(C)=C[C@@H]23)[C@@H]2C(C)(C)[C@]12OC(C)=O", "note": "[PMA, phorbol 12-myristate 13-acetate]", "values": [
      {"measurement": "APPs secretion relative to untreated cells", "setting": "secreted APP (APPs); PMA 5 μM or DNF 100 μM, 1 hour, mAb22C11", "result": "significantly increases"},
      {"measurement": "APPs secretion, to that of untreated cells", "setting": "secreted APP (APPs); PMA 5 μM, dexnorfenfluramine 100 μM", "result": "~3.0", "unit": "fold"},
      {"measurement": "effect on APP mRNA", "setting": "APP mRNA; PMA 5 μM or dexnorfenfluramine 100 μM", "result": "does not increase"},
      {"measurement": "effect on cell-associated APP (APP holoprotein)", "setting": "APP holoprotein [1]; 24 h", "result": "no effect"},
      {"measurement": "effect on cell-associated APP (APP holoprotein)", "setting": "APP holoprotein [1]; 24 h, listed as phorbol 12-myristate 13-acetate", "result": "does not increase"}
    ]},
    {"smiles": "CCN(CC)CC.Nc1ncnc2c1ncn2[C@@H]1O[C@@H]2COP(O)(=S)O[C@H]2[C@H]1O", "note": "(stereo partly drawn) [Sp-cAMP triethylamine]", "values": [
      {"measurement": "cellular APP holoprotein compared to untreated cells", "setting": "APP holoprotein [1]; Sp-cAMP triethylamine 50 μM, 24 h, antiserum R98", "result": 1.6, "unit": "fold"},
      {"measurement": "cellular APP holoprotein compared to untreated cells", "setting": "APP holoprotein [1]; Sp-cAMP triethylamine 100 μM, 24 h, antiserum R98", "result": 1.9, "unit": "fold"},
      {"measurement": "cellular APP holoprotein compared to untreated cells", "setting": "APP holoprotein [1]; Sp-cAMP triethylamine 150 μM, 24 h, antiserum R98", "result": 2.2, "unit": "fold"},
      {"measurement": "effect on astrocytic APP holoprotein", "setting": "APP holoprotein [1]; Sp-cAMP triethylamine in the absence of PG E2", "result": "sufficient to stimulate increases"}
    ]},
    {"smiles": "Cc1c(C(=O)c2cccc3ccccc23)c2cccc3c2n1[C@H](CN1CCOCC1)CO3", "note": "[Win55212]", "values": [
      {"measurement": "effect on APP synthesis", "setting": "APP synthesis", "result": "decrease or inhibit"}
    ]},
    {"smiles": "CC(=O)Oc1ccccc1C(=O)O", "note": "[aspirin]", "values": [
      {"measurement": "secretion of soluble APPs", "setting": "secreted APP (APPs); 1 h", "result": "increase"},
      {"measurement": "secretion of soluble APPs", "setting": "secreted APP (APPs); 1 h, listed as Aspirin", "result": "promotes"},
      {"measurement": "APP holoprotein levels versus uninjected control rats / effect on the PCA-induced increase", "setting": "APP holoprotein [3]; rats injected with both aspirin and PCA", "result": "did not differ; also recorded: attenuated"},
      {"measurement": "brain APP holoprotein relative to control levels", "setting": "APP holoprotein [3]", "result": "significant decrease"},
      {"measurement": "brain APP holoprotein relative to control levels", "setting": "APP holoprotein [3]; listed as Aspirin", "result": "small, but significant decrease"},
      {"measurement": "levels of cellular and amyloidogenic APP holoprotein", "setting": "APP holoprotein [1]", "result": "decreased levels"},
      {"measurement": "levels of cellular and amyloidogenic APP holoprotein", "setting": "APP holoprotein [1]; listed as Aspirin", "result": "decreases"}
    ]},
    {"smiles": "CC(C)NCC(O)c1ccc(O)c(O)c1", "note": "(stereo not drawn) [isoproterenol]", "values": [
      {"measurement": "APP mRNA levels versus untreated cells", "setting": "APP mRNA; 24 h, NE 50 or 100 μM, isoproterenol 50 μM, Northern blot", "result": "about 1.6 fold"},
      {"measurement": "APP mRNA, of untreated cells", "setting": "APP mRNA; NE 50 or 100 μM, isoproterenol 50 μM", "result": 180, "unit": "%"},
      {"measurement": "effect on APP mRNA levels above controls", "setting": "APP mRNA; about 24 h, NE 50 or 100 μM, Iso 50 μM, 8Br-cAMP […] μM", "result": "mimicked"}
    ]},
    {"smiles": "CN1CCCC1c1cccnc1.O=C(O)C(O)C(O)C(=O)O.O=C(O)C(O)C(O)C(=O)O", "note": "(stereo not drawn) [nicotine ditartrate]", "values": [
      {"measurement": "APP secreted in the media", "setting": "secreted APP (APPs); nicotine ditartrate 1, 10 or 100 μM, 1 h", "result": "decreased"},
      {"measurement": "astrocytic APP holoprotein relative to untreated cells", "setting": "APP holoprotein [1]; nicotine ditartrate 1, 10 or 100 μM, 24 h, p<0.05", "result": "significantly increased"}
    ]},
    {"smiles": "CC(C)NCC(O)COc1cccc2ccccc12", "note": "(stereo not drawn) [propranolol]", "values": [
      {"measurement": "effect on the NE-induced increase in PI hydrolysis", "setting": "PI hydrolysis", "result": "no effect"},
      {"measurement": "effect on the NE- or isoproterenol-stimulated increase in APP mRNA", "setting": "APP mRNA; propranolol 50 μM", "result": "to baseline levels; also recorded: significantly inhibited; also recorded: abolished"},
      {"measurement": "effect on the NE-induced increase in cAMP formation", "setting": "cellular cAMP levels; [4]", "result": "inhibits"},
      {"measurement": "effect on basal APP protein levels", "setting": "APP holoprotein [1]; propranolol 50 μM on its own", "result": "no significant effect"},
      {"measurement": "effect on the NE-stimulated increase in APP holoprotein", "setting": "APP holoprotein [1]; [4]", "result": "inhibited"},
      {"measurement": "effect on APP synthesis", "setting": "APP synthesis", "result": "decrease or inhibit"}
    ]},
    {"smiles": "Oc1ccc(C=Cc2cc(O)cc(O)c2)cc1", "note": "[resveratrol]", "values": [
      {"measurement": "secretion of soluble APPs", "setting": "secreted APP (APPs); 1 h", "result": "increase; also recorded: promotes"},
      {"measurement": "levels of cellular and amyloidogenic APP holoprotein", "setting": "APP holoprotein [1]", "result": "decreased levels; also recorded: decreases"}
    ]}
  ]
}
